Source: patent publication US11634434B2, “Bifunctional alpha-synuclein binding agents and uses thereof” (University of Saskatchewan, priority 2016, dated 2023)
Several values for one entry are separate records, joined by “and”; a condition that tells them apart may be missing. Equal entries are not always repeated. Where two headings read alike, the source gives them in different places.

Tests used:
[1] = test system: alpha-synuclein-GFP aggregation in yeast strain 2AS; type: cell-based; details: 1 micromolar compound, 5 mM galactose; for AS-GFP foci / fluorescence pattern: up to 12 hours
Description: (§1) Third, the drugs were assayed in a yeast model of Parkinson's Disease, which expresses an alpha-synuclein-Green Fluorescent Protein (AS-GFP) construct under the control of a galactose promoter.
For Analysis of AS-GFP distribution, the 2AS strain was grown overnight in drop-out media. After normalization of culture density, galactose was administered to a final concentration of 5 mM. […] For the yeast recovery assay, yeast cells were obtained after 6 hours induction with 5 mM galactose concentration, washed in galactose free media and the compounds were added to a final concentration of 1 micromolar in a 2 mL reaction mixture. The culture was incubated at 30° C. for 3, 6, and 9 hour intervals. Images were obtained at each interval using an Olympus Infinity (BX51) fluorescence microscope at 100× magnification.

[2] = test system: male Sprague-Dawley rats with increased alpha-synuclein expression; test: Forced swim test in ASIA-treated rats; type: in vivo, rat; details: ASIA + compound 3 mg/kg; for success in forced swim test / vigor in forced swim test: last three minutes of the test
Description: (§2) male Sprague-Dawley rats are used (200 g-300 g). All animals are handled ethically following approved protocols. For the first round of studies, rats are divided into five treatment groups:
(§3) Rats are subjected to 7-day chronic injection of 3 mg/kg of each test compound, and a forced swim test is conducted after the seventh day to measure motor deficits. […] For a second round of studies, rats are divided into four treatment groups, and the same experiments were repeated:
The forced swim test is carried out by immersing the rat in water that is sufficiently deep to force the rat to swim. The forced swim test is scored based on the following criteria:
Vigor and success are measures of motor function. Immobility is thought to be a measure of depression.^59 Based on videos of the forced swim test, the amount of time that each rat was motionless was calculated as a form of scoring depression for each treatment. Statistical analysis was carried out using an ordinary one-way ANOVA and Tukey multiple comparisons test.

[3] = test system: yeast strain 2AS (2 copies of AS-GFP gene); type: cell-based
Description: as §1
Construction of the 1AS and 2AS strains has been described in detail previously.^55 Strains were grown in YPD supplemented with 30 μg/ml of all amino acids. The OD600 was adjusted to 0.05 in drop-out media (no uracil) at 30° C. Drugs were dissolved in methanol at 0.01 micromolar, 0.1 micromolar, 1 micromolar or 10 micromolar followed by addition of 100 micromolar or 5 mM galactose to a final volume of 10 mL.

[4] = biological target: T1, alpha-synuclein (Homo sapiens, UniProt P37840); test: Isothermal titration calorimetry (ITC) binding to alpha-synuclein; details: for # Binding sites: Table 2; for Bind to N and C?: binds to both N and C portions of alpha-synuclein; for increase of Ka for a 10-fold decrease in ionic strength: 100 mM KCl versus 1.0M KCl; for Kd: read-out: Ka (converted); for Bind to N and C?: key: Y indicates yes; N indicates no
Description: (§4) Nanopore analysis and isothermal titration calorimetry were performed as described previously.^21,54

[5] = biological target: T1, alpha-synuclein; test: Nanopore analysis of alpha-synuclein (blockade current histograms); type: binding; details: for nanopore profile (bumping peak / binding): FIG. 3; for nanopore profile of additional bifunctional molecules: FIGS. 9A-9D
Description: The bifunctional molecules were characterized by four different methods. […] If the compound causes a more compact conformation, then the alpha-synuclein can no longer translocate and it simply bumps into the pore giving rise to a very small change in the blockade current.^44-46
as §4

[6] = test system: preformed alpha-synuclein-GFP foci in yeast strain 2AS; test: Yeast recovery assay, fluorescence microscopy of preformed AS-GFP foci; type: cell-based; details: compound added 6 hours after induction with 5 mM galactose
Description: For Analysis of AS-GFP distribution, the 2AS strain was grown overnight in drop-out media. After normalization of culture density, galactose was administered to a final concentration of 5 mM. Fluorescence images were obtained at zero time, 3 hours, 6 hours, 9 hours and 12 hours. For the yeast recovery assay, yeast cells were obtained after 6 hours induction with 5 mM galactose concentration, washed in galactose free media and the compounds were added to a final concentration of 1 micromolar in a 2 mL reaction mixture. The culture was incubated at 30° C. for 3, 6, and 9 hour intervals. Images were obtained at each interval using an Olympus Infinity (BX51) fluorescence microscope at 100× magnification.

[7] = biological target: T1, alpha-synuclein; details: 10 micromolar compound, shown previously; cited from earlier work
[8] = test system: alpha-synuclein in substantia nigra; test: Immunohistochemistry of alpha-synuclein in substantia nigra of ASIA-treated rats; type: in vivo, rat; details: ASIA + compound 3 mg/kg, 7 days of chronic injections
Description: as §2, §3
Tissue sections of substantia nigra from each of the treatment groups in the rat studies were evaluated for the presence of tyrosine hydroxylase, DNA (using the nuclear stain DAPI) and alpha-synuclein using immunohistochemistry. After behavioural tests were completed, the rats were euthanized, perfused and fixed in 4% paraformaldehyde. 40 μm brain slices were utilized for the immunohistochemistry procedure. Anti-Tyrosine Hydroxylase—a primary antibody for tyrosine positive neurons, host species rabbit, Millipore, Sigma Aldrich. DAPI—nuclear stain already pre-conjugated (NucBlue Fixed Cell Stain ReadyProbe reagent, Thermo Fisher Scientific). Anti-Alpha Synuclein—primary antibody for Anti-Synuclein, host species mouse, Abcam. Primary antibodies were diluted 1:500. Alexa Fluoro 488 Donkey anti-rabbit IgG—secondary antibody with fluorescent tag, Invitrogen, Thermo Fisher Scientific. Alexa Fluoro 594 Goat anti-mouse IgG—secondary antibody with fluorescent tag, Life Technologies, Thermo Fisher Scientific. Secondary antibodies were diluted 1:1000. Thioflavin S—stain for alpha-synuclein aggregates, Sigma Aldrich. Thioflavin S stock concentration at 5 mg/ml. Final dilution 1:100.
Tyrosine hydroxylase is a marker for dopaminergic neurons and is used to confirm that the desired cells are being imaged. DAPI (4′,6-diamidino-2-phenylindole) is a stain that binds to A-T rich regions in DNA, and is used to identify cell nuclei. Thioflavin S is used to stain aggregated proteins such as amyloid plaques. A higher level of staining with thioflavin S is indicative of a higher degree of protein aggregation.

[9] = test system: WT yeast; test: Yeast growth curves (OD600), toxicity of drugs on WT yeast; type: cell-based; design: effect on growth of WT yeast: dose or concentration left out as unconfirmed; details: for effect on growth of WT yeast: no alpha-synuclein
[10] = 1 micromolar compound + 100 micromolar galactose
[11] = ITC in 1.0M KCl, bifunctional molecules (or monomers) per alpha-synuclein molecule, best fit
[12] = 1 micromolar compound + 5 mM galactose
[13] = 1 micromolar alpha-synuclein, 20 micromolar compound

| SMILES | growth of 2AS yeast [3, 10] | Ka ([4]; ITC in 1.0M KCl) | # of Binding sites [4, 11] | # Binding sites [4] | Ka ([4]; Table 2, ITC) [M⁻¹] | Bind to N and C? [4] | further results |
| --- | --- | --- | --- | --- | --- | --- | --- |
| NC1CCc2ccccc21 (racemic) [(R,S)-1-aminoindan, reference compound] | rate of growth which is similar to that shown by the WT strain | – | – | – | – | – | formation of foci delayed until (time after induction) [1]: 9 h; immobility in forced swim test [2]: partially reversed; success in forced swim test [2]: some improvement; vigor in forced swim test [2]: some improvement |
| CN1CCC[C@H]1c1cccnc1 (racemic) [(R,S)-nicotine, reference compound] | rate of growth which is similar to that shown by the WT strain | – | – | – | – | – | formation of foci delayed until (time after induction) [1]: 9 h |
| Cn1c(=O)c2c(ncn2CCCCCCN2CCCC2c2cccnc2)n(C)c1=O (racemic) [Compound C7-6-N] | – | 5.1e+06 M⁻¹ | 1 | 1 | 5e+06 | Y | lag before growth rescue / reaching the growth plateau [3, 12]: about 6 hours |
| Cn1c(=O)c2c(nc(CCCCCCN3CCCC3c3cccnc3)n2C)n(C)c1=O (racemic) [Compound C8-6-N] | – | 43000 M⁻¹ | 1 | 1 | 43000 | Y | major peak, blockade current [5, 13]: −55 pA; nanopore profile (bumping peak / binding) [5, 13]: do not have a significant bumping peak; effect on preformed large foci of alpha-synuclein [6]: can cause preformed large foci of alpha-synuclein to dissipate; AS-GFP foci / fluorescence pattern [1]: similar; increase of Ka for a 10-fold decrease in ionic strength [4]: approximately 10 fold; # of Binding sites ([4]; ITC in 100 mM KCl): 1; Ka ([4]; ITC in 100 mM KCl): 480000 M⁻¹; binding constants as measured by ITC, order of magnitude ([4]; summary statement): ~10^5 M^−1; growth of 2AS yeast [3, 12]: essentially normal |
| Cn1c(=O)c2c(ncn2C)n(C)c1=O [Caffeine, caffeine, reference compound] | – | – | 1 | 1 | – | Y | formation of foci delayed until (time after induction) [1]: 9 h; major peak, blockade current, compound alone [7]: about −76 pA |
| NC1Cc2ccccc2C1 [Compound 2-aminoindan, 2-aminoindan, reference compound] | – | – | – | – | – | – | immobility in forced swim test [2]: significantly increases immobility; success in forced swim test [2]: decreased success; vigor in forced swim test [2]: decreased vigor; level of alpha-synuclein staining in substantia nigra [8]: considerably increased |
| Cn1c(=O)c2c(ncn2CCCCCCn2cnc3c2c(=O)n(C)c(=O)n3C)n(C)c1=O [Compound C7-6-C7] | – | 720000 M⁻¹ | 2 | 2 | 700000 | Y | nanopore profile (bumping peak / binding) [5, 13]: predominantly bumping peaks; growth of 2AS yeast [3, 12]: marginal growth rescue |
| Cn1c(=O)c2c(ncn2CCCCCCNC2CCc3ccccc32)n(C)c1=O (stereo not shown) [Compound C7-6-I] | – | 2.6e+06 M⁻¹ | 1 | 1 | 2e+06 | Y | AS-GFP foci / fluorescence pattern [1]: more diffuse area of fluorescence; growth of 2AS yeast [3, 12]: moderate growth; lag before growth rescue / reaching the growth plateau [3, 12]: about 6 hours |
| Cn1c(=O)c2c(nc(CCc3nc4c(c(=O)n(C)c(=O)n4C)n3C)n2C)n(C)c1=O [Compound C8-2-C8] | – | – | – | 1 | 900000 | Y | nanopore profile of additional bifunctional molecules [5]: significant bumping peaks |
| Cn1c(=O)c2c(nc(CCCCCCc3nc4c(c(=O)n(C)c(=O)n4C)n3C)n2C)n(C)c1=O [Compound C8-6-C8] | – | 2e+08 M⁻¹ and 280000 M⁻¹ | 0.25 | 0.25 | 2e+08 | Y | nanopore profile (bumping peak / binding) [5, 13]: predominantly bumping peaks; toxicity on WT yeast ([9]; 100 micromolar compound): toxic; increase of Ka for a 10-fold decrease in ionic strength [4]: does not increase; # of Binding sites ([4]; ITC in 100 mM KCl): 0.25; Ka ([4]; ITC in 100 mM KCl): 1.8e+08 M⁻¹; lag before growth rescue / reaching the growth plateau [3, 12]: about 6 hours |
| CN(CCCCCCCc1nc2c(c(=O)n(C)c(=O)n2C)n1C)C(=N)NC(=N)N.Cl [Compound C8-7-M] | – | – | – | 2 | 640000 | Y | nanopore profile of additional bifunctional molecules [5]: significant bumping peaks |
| CN(C)C(=N)N=C(N)N [Metformin, metformin, reference compound] | rate of growth which is similar to that shown by the WT strain | – | 1 | 3 | – | N | formation of foci delayed until (time after induction) [1]: 9 h; Kd ([4]; ITC in 1.0M KCl): 109 nM; Kd ([4]; Table 2, ITC): 111 nM; major peak, blockade current, compound alone [7]: about −65 pA |
| CC(N)Cc1ccccc1 (stereo not shown) [amphetamine] | significant reduction of growth | – | – | – | – | – | time at which complete filling of the cell with AS-GFP occurs [1]: 6 h; AS-GFP foci / fluorescence pattern [1]: larger foci appear at earlier times; effect on growth of WT yeast [9]: no evidence of toxicity |
| C[n+]1ccc(-c2cc[n+](C)cc2)cc1 [paraquat, reference compound] | significant reduction of growth | – | – | – | – | – | effect on growth of WT yeast [9]: no evidence of toxicity |
| C=C(C)[C@H]1Cc2c(ccc3c2O[C@@H]2COc4cc(OC)c(OC)cc4[C@@H]2C3=O)O1 [rotenone, reference compound] | significant reduction of growth | – | – | – | – | – | – |
